# Experiments:
# Assay type in all cases: cell-based
# [1] = system: primary human total T-cells; experiment: T-cell activation assessed by cytokine secretion (GM-CSF, IFNγ, TNFα)
# Procedure, shortened: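 Primary human T-cells (>95% CD3+, negative selection from PBMC) were pre-incubated with inhibitor (e.g. 10, 1.11, 0.123 μM; DMSO <0.1%) for 1 h at 37 °C. They were then stimulated 48 h with plate-bound OKT3 (coated at 10 μg/mL), alone or with 5 μg/mL soluble anti-CD28. Results are fold change over uninhibited, identically stimulated cells.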
# anergic human T-cells = experiment: Anergic T-cell activation assessed by IFNγ secretion (ionomycin-induced anergy); settings: anergic T-cells re-challenged with anti-CD3 and anti-CD28 for 24 hours, read-out: IFNγ Fold change from baseline
# Procedure, shortened: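 Human primary T-cells (>95% CD3+) were activated with anti-CD3/anti-CD28 for 2 days, rested 3 days, then made anergic with ionomycin for 18-24 h. Compound (e.g. 10, 1.11, 0.37 μM) was added for 1 h before 24 h anti-CD3/CD28 re-challenge; IFNγ by ELISA or Luminex as fold over untreated anergic baseline, binned A ≤2.50, B 2.51-4.00, C >4.01.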
# [2] = system: primary human total T-cells; experiment: T-cell activation assessed by cell proliferation (Cell Trace Violet)
# From the text: Peripheral blood mononuclear cells (PBMC) were obtained either: 1) by using Ficoll-Paque™ (GE Healthcare) for separation of peripheral blood hematopoietic cells from buffy coats of healthy human donors; or 2) directly from FeukoPak donations. Total human primary T-cells were isolated from the PMBCs utilizing negative selection with commercial kits following the manufacturer's protocol (Miltenyi Catalog #130-096-535 (i.e., cocktail of antibodies against surface markers CD14, CD15, CD16, CD19, CD34, CD36, CD56, CD123 and CD235a are incubated with the PBMCs before passing the samples by magnetic beads for removal of cells expressing those surface markers) or StemCells Catalog #17951) to yield >95% CD3+ cells as assessed by flow cytometry. For measurement of cell proliferation, cells were labeled with Cell Trace Violet (Invitrogen) following manufacturer's protocol prior to activation by stimulation with anti-CD3 antibody alone or in combination with anti-CD28 antibody. The Cbl-b inhibitor was added to 1×10^5 cells per well at multiple concentrations (e.g., 10 μM, 1.11 μM, or 0.123 μM) with a final DMSO concentration of <0.1%. The plate was incubated for one hour at 37° C. in 5% CO2. Following incubation with the Cbl-b inhibitor, primary human total T-cells were stimulated with either plate bound anti-CD3 antibody (OKT3) alone or plate bound anti-CD3 antibody (OKT3) with soluble anti-CD28 antibody (28.2) (Life Technologies). To prepare plates with plate bound anti-CD3 antibody (OKT3), 96-well round bottom tissue culture plates were coated with 100 μl of anti-CD3 antibody (OKT3) at 10 μg/mL for 4 hours at 37° C. 5% CO2 in phosphate buffered saline (PBS). The plates were washed with PBS prior to adding the cells with or without soluble anti-CD28 antibody (28.2) to each well at a final concentration of 5 μg/mL. Cells were stimulated for 48 hours prior to harvesting the cell free supernatant and staining the cell population for surface marker assessment by flow cytometry. Supernatants were analyzed for cytokine secretion (e.g., GM-CSF, IFNγ and TNFα) by ELISA (R&D Systems, Peprotech or Life Technologies) or Luminex multiplex kits (Procarta Life Technologies) following manufacturer's protocol. Cells were stained with anti-CD69 (BD Biosciences) to assess levels of surface markers of activation. Proliferation was measured by flow cytometry and data was analyzed with FlowJo v7.6.5 or v10. Readouts were reported as fold change over baseline. In some embodiments, baseline was the measurement obtained from total human T-cells stimulated with anti-CD3 antibody alone, wherein the cells were not incubated with a Cbl-b inhibitor. In some embodiments, baseline was the measurement obtained from total human T-cells stimulated with anti-CD3 antibody and anti-CD28 antibody, where the cells were not incubated with a Cbl-b inhibitor.
# Cbl-b inhibitors were tested to determine their ability to induce or enhance secretion of cytokines from T-cells (e.g., GM-CSF, IFNγ and TNFα) and/or surface expression of cell surface markers on T-cells (e.g., CD69) that is indicative of T-cell activation. Cbl-b inhibitors were also tested to determine their ability to induce or enhance T-cell proliferation. Cbl-b inhibitors were tested for their effects on T-cell activation in the presence of costimulation and where conditions were suboptimal for priming.
# Readouts for T-cell activation were reported as fold change over baseline. Baseline for this study was the measurement obtained from total human T-cells stimulated with anti-CD3 antibody alone or anti-CD3 antibody in combination with soluble anti-CD28 antibody, where the cells were not incubated with a Cbl-b inhibitor. For T-cells stimulated with anti-CD3/anti-CD28 or with anti-CD3 alone changes greater than 1,2-fold over baseline for % positive CD69 staining and greater than 2-fold over baseline for % total proliferating cells were considered a significant and positive response (Table 4a). […]
# [3] = CD3/CD28 stimulation, read-out: GM-CSF secretion
# [4] = CD3/CD28 stimulation, read-out: IFNγ secretion
# [5] = CD3/CD28 stimulation, read-out: TNFα secretion
# [6] = CD3 alone stimulation, read-out: GM-CSF secretion
# [7] = CD3 alone stimulation, read-out: IFNγ secretion
# [8] = CD3 alone stimulation, read-out: TNFα secretion
# [9] = CD3/CD28 stimulation, CD4 T-cells, read-out: % CP (cell proliferation) (CD4)
# [10] = CD3/CD28 stimulation, CD8 T-cells, read-out: % CP (cell proliferation) (CD8)
# [11] = CD3 alone stimulation, CD8 T-cells, read-out: % CP (cell proliferation) (CD8)
Compound,"fold induction at 1.11 µM [1, 3]","fold induction at 1.11 µM [1, 4]","fold induction at 1.11 µM [1, 5]","fold induction at 10 µM [1, 3]","fold induction at 10 µM [1, 4]","fold induction at 10 µM [1, 5]","fold induction at 1.11 µM [1, 6]","fold induction at 1.11 µM [1, 7]","fold induction at 1.11 µM [1, 8]","fold induction at 10 µM [1, 6]","fold induction at 10 µM [1, 7]","fold induction at 10 µM [1, 8]",fold induction at 0.37 µM (anergic human T-cells),fold induction at 1.11 µM (anergic human T-cells),fold induction at 10 µM (anergic human T-cells),"fold induction at 1.11 µM [2, 9]","fold induction at 10 µM [2, 9]","fold induction at 1.11 µM [2, 10]","fold induction at 10 µM [2, 10]","fold induction at 1.11 µM [2, 11]",further results
"C[C@H](Cc1nncn1C)c1cccc(NC(=O)c2nc(C(F)(F)F)c[nH]2)c1 [Compound 326, (R)-N-(3-(1-(4-methyl-4H-1,2,4-triazol-3-yl)propan-2-yl)phenyl)-4-(trifluoromethyl)-1H-imidazole-2-carboxamide]",1.51 to 2,< 2,≤ 1.5,2.01 to 4,2.01 to 3,2.01 to 4,1.51 to 2,< 2,≤ 1.5,2.01 to 4,2.01 to 3,1.51 to 2,≤ 2.5,≤ 2.5,2.51 to 4,2.01 to 3,> 4,2.01 to 3,3.01 to 4,2.01 to 3,"fold induction at 10 µM [2, 11]: > 4"
"CNCc1ccc(C(=O)Nc2cccc([C@H](C)Cc3nncn3C)c2)nc1C1CC1 [Compound 376, (R)-6-cyclopropyl-N-(3-(1-(4-methyl-4H-1,2,4-triazol-3-yl)propan-2-yl)phenyl)-5-((methylamino)methyl)picolinamide]",2.01 to 4,< 2,2.01 to 4,> 4,< 2,2.01 to 4,1.51 to 2,2.01 to 3,≤ 1.5,2.01 to 4,3.01 to 4,1.51 to 2,≤ 2.5,≤ 2.5,> 4.01,> 4,> 4,3.01 to 4,> 4,> 4,"fold induction at 10 µM [2, 11]: > 4"
"C[C@H](Cc1nncn1C)c1ccnc(NC(=O)c2cccc(C(F)(F)F)n2)c1 [Compound 302, (R)-N-(4-(1-(4-methyl-4H-1,2,4-triazol-3-yl)propan-2-yl)pyridin-2-yl)-6-(trifluoromethyl)picolinamide]",–,–,–,–,–,–,–,–,–,–,–,–,≤ 2.5,≤ 2.5,≤ 2.5,–,–,–,–,–,–
"Cn1cnnc1[C@@H]1C[C@@H]1c1cccc(N2Cc3c(cccc3C(F)(F)F)C2=O)c1 [Compound 282, 2-(3-((1S,2R)-2-(4-methyl-4H-1,2,4-triazol-3-yl)cyclopropyl)phenyl)-4-(trifluoromethyl)isoindolin-1-one]",1.51 to 2,< 2,≤ 1.5,2.01 to 4,2.01 to 3,2.01 to 4,≤ 1.5,< 2,≤ 1.5,2.01 to 4,2.01 to 3,≤ 1.5,≤ 2.5,≤ 2.5,≤ 2.5,< 2,> 4,< 2,2.01 to 3,< 2,"fold induction at 10 µM [2, 11]: 3.01 to 4"
"C[C@H](Cc1nncn1C)c1cccc(N2Cc3c(ccnc3C3CC3)C2=O)c1 [Compound 257, 4-cyclopropyl-2-[3-[(1R)-1-methyl-2-(4-methyl-1,2,4-triazol-3-yl)ethyl]phenyl]-3H-pyrrolo[3,4-c]pyridin-1-one]",2.01 to 4,< 2,1.51 to 2,> 4,2.01 to 3,2.01 to 4,1.51 to 2,< 2,≤ 1.5,2.01 to 4,2.01 to 3,≤ 1.5,≤ 2.5,≤ 2.5,2.51 to 4,2.01 to 3,> 4,< 2,3.01 to 4,< 2,"fold induction at 10 µM [2, 11]: 3.01 to 4"
"Cc1cc2c(c(C3CC3)n1)CN(c1cccc([C@H](C)Cc3nncn3C)c1)C2=O [Compound 372, 4-cyclopropyl-6-methyl-2-{3-[(2R)-1-(4-methyl-4H-1,2,4-triazol-3-yl)propan-2-yl]phenyl}-1H,2H,3H-pyrrolo[3,4-c]pyridin-1-one]",≤ 1.5,< 2,≤ 1.5,2.01 to 4,< 2,2.01 to 4,≤ 1.5,< 2,≤ 1.5,1.51 to 2,< 2,≤ 1.5,≤ 2.5,≤ 2.5,2.51 to 4,< 2,> 4,< 2,2.01 to 3,< 2,"fold induction at 10 µM [2, 11]: 2.01 to 3"

# — patent US20220324835A1 (Nurix Therapeutics, Inc., priority 2018, published 2022)
